Experimental findings from publication PMC9298352, “Design, Synthesis and Structural Analysis of Glucocerebrosidase Imaging Agents” (Chemistry (Weinheim an Der Bergstrasse, Germany), 2021) are described below.

Assay [1] has as its target T1, endogenous GBA in HEK293T cells (Homo sapiens, UniProt P04062).
T1 construct: endogenous in cells; host or cells: HEK293T
T1 sequence (P04062 40-536): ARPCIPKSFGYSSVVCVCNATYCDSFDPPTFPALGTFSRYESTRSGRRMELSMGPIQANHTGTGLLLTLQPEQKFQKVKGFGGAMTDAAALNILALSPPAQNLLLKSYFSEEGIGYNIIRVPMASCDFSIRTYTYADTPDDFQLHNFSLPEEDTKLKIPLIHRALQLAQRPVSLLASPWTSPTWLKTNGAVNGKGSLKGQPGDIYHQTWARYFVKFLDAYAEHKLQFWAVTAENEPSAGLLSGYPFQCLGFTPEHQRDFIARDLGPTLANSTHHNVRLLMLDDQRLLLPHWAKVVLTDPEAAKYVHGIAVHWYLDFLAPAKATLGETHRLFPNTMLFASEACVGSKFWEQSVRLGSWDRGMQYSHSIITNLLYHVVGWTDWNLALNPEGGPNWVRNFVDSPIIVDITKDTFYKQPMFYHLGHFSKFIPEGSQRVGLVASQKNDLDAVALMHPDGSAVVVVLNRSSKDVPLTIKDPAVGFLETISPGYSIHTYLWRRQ
Briefly: In situ labeling of GBA in living HEK293T cells (gel-based ABPP). Conditions: 1–1000 nM, 24 h, 37 °C. The assay is classed as cell-based. Here is the method: HEK293T cells containing endogenous GBA and overexpressed GBA2 were treated with the ABPs at different concentrations (1–1000 nM) for 24 hr. Cells were then washed, lysed and the fluorescence was visualized by gel‐based ABPP (Figure 8).
CBB, Coomassie Brilliant Blue staining (bottom panel).
Labelling of HEK293T cells, containing endogenous GBA and overexpressed GBA2, with ABPs 6, 8 and 9 was conducted based on previously described methods[69] as outlined in the Supporting Information (page 7).
Cy5 tetrazine 20 (2.83 mg, 4.3 µmol) was added to a solution of norbornene 19 (0.94 mg, 2.38 µmol) in MeOH (4 mL). After stirring overnight at rt, the reaction mixture was concentrated in vacuo and purified by HPLC under neutral conditions (A: 50 mM NH4HCO3 in H2O; B: MeCN; 49% → 52%, A in […]
(§1) Biochemical Methods: General Experimental Details
Recombinant human GBA (rhGBA, imiglucerase, Cerezyme®) and GAA (rhGAA, alglucosidase alfa, Myozyme) were obtained from Sanofi Genzyme (Cambridge, MA, USA). HEK293T (CRL-3216) cell lines were purchased from ATCC (Manassas, VA, USA). Cell lines were […]
(1 picture or pasted object on this page, not shown here)

A further assay concerns the target T2, rhGBA (Homo sapiens, UniProt P04062).
T2 construct: made in house; host or cells: insect-baculovirus expression vector system (BEVS)
T2 sequence (P04062 40-536): T1 sequence (P04062 40-536)
Briefly: pH dependent activity-based labelling of rhGBA by ABP 6 and ABP 9. As to conditions: rhGBA 200 nM, ABP 150 nM, pH 4.5, 5.2 or 7.4, 37 °C, 30 mins. It counts as biochemical. As for the experimental part:
Cy5 tetrazine 20 (2.83 mg, 4.3 µmol) was added to a solution of norbornene 19 (0.94 mg, 2.38 µmol) in MeOH (4 mL). After stirring overnight at rt, the reaction mixture was concentrated in vacuo and purified by HPLC under neutral conditions (A: 50 mM NH4HCO3 in H2O; B: MeCN; 49% → 52%, A in B) yielding ABP 7 (2.12 mg, 2.07 µmol, 87%) as a mixture of regioisomers.
as §1
Recombinant human GBA (rhGBA, imiglucerase, Cerezyme®) and GAA (rhGAA, alglucosidase alfa, Myozyme) were obtained from Sanofi Genzyme (Cambridge, MA, USA). HEK293T (CRL-3216) cell lines were purchased from ATCC (Manassas, VA, USA). […] All the tissue lysates were prepared in potassium phosphate lysis buffer (25 mM in pH 6.5, supplemented with 0.1% (v/v) Triton X-100 and protease inhibitor 1x cocktail (Roche)) via homogenization with silent crusher S equipped with Typ 7 F/S head (30 rpm x 1000, 3 × 7 sec) on ice and lysate concentration was determined with Bicinchoninic acid (BCA) Protein Assay Kit (PierceTM)[7]. […]
ABP 9 were diluted with DMSO into various concentrations (200x of the final concentration), and 5 µL of ABP at different concentrations were added into 1 mL fresh medium containing cells and incubated at 37°C for 24 h. […] The protein concentrations were determined using BCA kit. […]

Turning to `CCCCCCCCN1[C@@H]2[C@H](Cn3cc(CNC(=O)CCCCC[N+]4=C(/C=C/C=C/C=C5/N(C)c6ccccc6C5(C)C)C(C)(C)c5ccccc54)nn3)[C@@H](O)[C@H](O)[C@@H](O)[C@@H]21` (some centres unmarked) [ABP 6], the “ABP concentration at which in situ labeling of GBA is observed” value in assay [1] came out at 10 nM. Moreover, the “pH dependence of rhGBA labelling” value on rhGBA was “greater labelling at acidin pH (4.5 and 5.2)”.
